#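 1) Cells in 96-well plates. 2) Compound, 48 h, 5 concentrations. 3) Linear interpolation between surrounding doses. 4) Unreached endpoint = highest concentration. At the GI50, growth is halved.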 Calls of active or inactive are those of the source. Cut-off read from the data, not from the text of the source: active = GI50 up to about 1.1 µM and inactive = higher.
# Legend:
# Experiment in all cases: inhibition of tumour cell growth, NCI panel, 48 h
# [1] = test system: KM12
# [2] = test system: HOP-62
# [3] = test system: RPMI-8226
# [4] = test system: SF-539
# [5] = test system: HCT-15
# [6] = test system: MCF7
# [7] = test system: M14
# [8] = test system: HT-29
# [9] = test system: HCC 2998
# [10] = test system: UACC-257
# [11] = test system: MDA-MB-231
# [12] = test system: Hs-578T
# [13] = test system: OVCAR-3
# [14] = test system: NCI-H460
# [15] = test system: UO-31
# [16] = test system: SK-MEL-28
# [17] = test system: SF-268
# [18] = test system: MDA-MB-435
# [19] = test system: SF-295
# [20] = test system: DMS-114
Compound,GI50 [1],GI50 [2],GI50 [3],GI50 [4],GI50 [5],GI50 [6],GI50 [7],GI50 [8],GI50 [9],GI50 [10],GI50 [11],GI50 [12],GI50 [13],GI50 [14],GI50 [15],GI50 [16],GI50 [17],GI50 [18],GI50 [19],GI50 [20]
c1ccc(/C(=N/Nc2ccncn2)c2ccccn2)cc1,22 µM (inactive),31.7 µM (inactive),9.75 µM (inactive),32.2 µM (inactive),24.4 µM,8.51 µM (inactive),10.3 µM (inactive),0.883 µM (active),> 100 µM (inactive),20.9 µM (inactive),32.2 µM (inactive),0.0114 µM (active),6.78 µM (inactive),30.1 µM (inactive),15.5 µM (inactive),70.3 µM (inactive),15.9 µM (inactive),48.6 µM (inactive),23.1 µM (inactive),–
Cn1cnc2[nH]c(=O)[nH]c(=S)c21,> 100 µM (inactive),> 100 µM (inactive),> 100 µM (inactive),> 100 µM (inactive),> 100 µM,–,> 100 µM (inactive),> 100 µM (inactive),> 100 µM (inactive),> 100 µM (inactive),–,–,> 100 µM (inactive),> 100 µM (inactive),> 100 µM (inactive),–,> 100 µM (inactive),–,> 100 µM (inactive),> 100 µM (inactive)
O=C1C2=Cc3ccccc3CCN2c2ccccc21,26.7 µM (inactive),> 63.8 µM (inactive),13.5 µM (inactive),16.4 µM (inactive),25.6 µM,14.9 µM (inactive),16.1 µM (inactive),14.9 µM (inactive),7.31 µM (inactive),27.2 µM (inactive),> 41.9 µM (inactive),41 µM (inactive),91.4 µM (inactive),21.2 µM (inactive),42.8 µM (inactive),> 49.9 µM (inactive),> 50.8 µM (inactive),28.7 µM (inactive),34.4 µM (inactive),–
O=C1C(c2ccccc2)=C(c2ccccc2)C(c2ccc(Cc3ccc(C4=C(c5ccccc5)C(=O)C(c5ccccc5)=C4c4ccccc4)cc3)cc2)=C1c1ccccc1,> 100 µM (inactive),> 100 µM (inactive),> 100 µM (inactive),> 100 µM (inactive),> 100 µM,–,–,> 100 µM (inactive),–,64.9 µM (inactive),–,–,> 100 µM (inactive),> 100 µM (inactive),> 100 µM (inactive),–,> 100 µM (inactive),–,69.5 µM (inactive),> 100 µM (inactive)
O=[N+]([O-])c1ccc2[nH]c(=S)[nH]c(=S)c2c1,> 100 µM (inactive),> 100 µM (inactive),> 100 µM (inactive),> 100 µM (inactive),> 100 µM,> 100 µM (inactive),> 100 µM (inactive),> 100 µM (inactive),> 100 µM (inactive),> 100 µM (inactive),> 100 µM (inactive),> 100 µM (inactive),> 100 µM (inactive),> 100 µM (inactive),> 100 µM (inactive),> 100 µM (inactive),> 100 µM (inactive),> 100 µM (inactive),> 100 µM (inactive),–
CSc1nc(Cl)c2c(n1)Sc1nc3cc4c(cc3n1C2O)OCO4 (centres undefined),0.194 µM (active),0.701 µM (active),0.385 µM (active),0.126 µM (active),0.31 µM,0.338 µM (active),0.333 µM (active),0.254 µM (active),1.66 µM (inactive),> 58.7 µM (inactive),0.391 µM (active),1.05 µM (active),0.982 µM (active),0.364 µM (active),0.46 µM (active),0.895 µM (active),0.637 µM (active),0.232 µM (active),0.818 µM (active),–
FC(F)(F)c1cccnc1Sc1nc2ccccc2s1,> 100 µM (inactive),57.8 µM (inactive),45.8 µM (inactive),> 100 µM (inactive),> 100 µM,> 100 µM (inactive),37.6 µM (inactive),> 100 µM (inactive),> 100 µM (inactive),> 100 µM (inactive),63.8 µM (inactive),45.7 µM (inactive),11.3 µM (inactive),> 100 µM (inactive),32.1 µM (inactive),> 100 µM (inactive),> 100 µM (inactive),> 100 µM (inactive),63 µM (inactive),–
O=[N+]([O-])c1cc(Cl)ccc1S(=O)(=O)N1CCCc2cc(Cl)ccc21,51.9 µM (inactive),> 100 µM (inactive),20.6 µM (inactive),93.1 µM (inactive),33.7 µM,45.8 µM (inactive),> 100 µM (inactive),21 µM (inactive),> 100 µM (inactive),7.08 µM (inactive),> 100 µM (inactive),> 100 µM (inactive),> 100 µM (inactive),30.5 µM (inactive),46.2 µM (inactive),> 100 µM (inactive),> 100 µM (inactive),17.8 µM (inactive),45.7 µM (inactive),–
COC(=O)/C=c1/c2ccccc2n2c1c1ccccc1[n+]2C,2.71 µM (inactive),3.05 µM (inactive),2.77 µM (inactive),3.82 µM (inactive),13.4 µM,3.34 µM (inactive),3.99 µM (inactive),3.79 µM (inactive),2.35 µM (inactive),2.58 µM (inactive),4.59 µM (inactive),2.64 µM (inactive),3.55 µM (inactive),3.37 µM (inactive),7.13 µM (inactive),5.82 µM (inactive),5.38 µM (inactive),4.2 µM (inactive),2.69 µM (inactive),–
Cc1nc2c3c(ncn2n1)Oc1c(c(-c2ccccc2)nn1-c1ccccc1)C3c1ccc(Cl)cc1 (centres undefined),> 100 µM (inactive),75.7 µM (inactive),> 100 µM (inactive),22.3 µM (inactive),> 100 µM,> 100 µM (inactive),79.3 µM (inactive),> 100 µM (inactive),> 100 µM (inactive),> 100 µM (inactive),> 100 µM (inactive),23.2 µM (inactive),> 100 µM (inactive),> 100 µM (inactive),> 100 µM (inactive),> 100 µM (inactive),47.2 µM (inactive),> 100 µM (inactive),50.8 µM (inactive),–
Cc1nc2c(o1)C(=O)c1ccccc1/C2=N/c1ccccn1,21.7 µM (inactive),18.4 µM (inactive),17.4 µM (inactive),18.2 µM (inactive),14 µM,17.7 µM (inactive),18.6 µM (inactive),18.8 µM (inactive),21.9 µM (inactive),14 µM (inactive),15.6 µM (inactive),14.8 µM (inactive),4.66 µM (inactive),14.6 µM (inactive),22.6 µM (inactive),18.8 µM (inactive),24.2 µM (inactive),17.9 µM (inactive),> 100 µM (inactive),–
CC(=O)NNc1nc(C)c(C(=O)/C=C/c2ccccc2Cl)s1,> 100 µM (inactive),> 100 µM (inactive),> 100 µM (inactive),> 100 µM (inactive),> 100 µM,–,–,> 100 µM (inactive),> 100 µM (inactive),> 100 µM (inactive),–,–,> 100 µM (inactive),> 100 µM (inactive),> 100 µM (inactive),> 100 µM (inactive),> 100 µM (inactive),–,> 100 µM (inactive),> 100 µM (inactive)
CCOC(CN(C)C(=O)Nc1cccc2ccccc12)OCC,> 10 µM (inactive),> 10 µM (inactive),> 10 µM (inactive),> 10 µM (inactive),> 10 µM,> 10 µM (inactive),> 10 µM (inactive),> 10 µM (inactive),> 10 µM (inactive),> 10 µM (inactive),> 10 µM (inactive),> 10 µM (inactive),> 10 µM (inactive),> 10 µM (inactive),> 10 µM (inactive),> 10 µM (inactive),> 10 µM (inactive),> 10 µM (inactive),> 10 µM (inactive),–
OCCN(CCO)c1cccc(N(CCO)CCO)c1,> 100 µM (inactive),> 100 µM (inactive),> 100 µM (inactive),–,> 100 µM,–,> 100 µM (inactive),–,–,> 100 µM (inactive),–,–,> 100 µM (inactive),> 100 µM (inactive),28.6 µM (inactive),> 100 µM (inactive),> 100 µM (inactive),–,> 100 µM (inactive),> 100 µM (inactive)
C=C1C(=O)CCC1C(=O)O (centres undefined),> 100 µM (inactive),> 100 µM (inactive),> 100 µM (inactive),> 100 µM (inactive),> 100 µM,> 100 µM (inactive),> 100 µM (inactive),> 100 µM (inactive),> 100 µM (inactive),61.8 µM (inactive),> 100 µM (inactive),> 100 µM (inactive),> 100 µM (inactive),> 100 µM (inactive),> 100 µM (inactive),> 100 µM (inactive),> 100 µM (inactive),> 100 µM (inactive),> 100 µM (inactive),–
Cc1cccc2c1[C@]13OC(C)[C@]4(C)CC5OC(=O)[C@@]1(C)[C@@H]5[C@]34C(=O)O2 (some centres undefined),> 100 µM (inactive),> 100 µM (inactive),> 100 µM (inactive),> 100 µM (inactive),> 100 µM,> 100 µM (inactive),> 100 µM (inactive),> 100 µM (inactive),> 100 µM (inactive),> 100 µM (inactive),> 100 µM (inactive),> 100 µM (inactive),> 100 µM (inactive),> 100 µM (inactive),> 100 µM (inactive),> 100 µM (inactive),> 100 µM (inactive),> 100 µM (inactive),> 100 µM (inactive),–

# — ChEMBL document CHEMBL1201862, “PubChem BioAssay data set” (2004)
